Our source for the EC50 and IC50 values is patent US11028087B2, “2,6-disubstituted-9-cyclopentyl-9H-purines, use thereof as medicaments, and pharmaceutical compositions” (UNIVERZITA PALACKEHO V OLOMOUCI, priority 2017, dated 2021).

In test [1] the test system is MOLM-13 (acute myeloid leukemia, FLT3-ITD positive). The test is described as follows: Calcein AM cytotoxicity assay. Format: cell-based. The following applies: Homo sapiens, 72 h; MOLM-13; Calcein AM, three days; read-out: EC50 values (μM) MOLM-13. In short, it runs like this: (§1)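 Cells were seeded in 96-well plates and treated next day with compounds at various concentrations in triplicate for three days at 37 °C, 5% CO2. Viability read as calcein fluorescence after 1 h with Calcein AM at 1 μg/ml final.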

Test [2] has as its system THP-1 (acute myeloid leukemia, wt FLT3). The test is described as follows: Calcein AM cytotoxicity assay. The following applies: Homo sapiens, 72 h; THP-1; Calcein AM, three days; read-out: EC50 values (μM) THP-1. Format: cell-based. The essentials:
as §1

In test [3] the test system is MV4-11 (acute myeloid leukemia, FLT3-ITD positive). The test is described as follows: Calcein AM cytotoxicity assay. The following applies: Homo sapiens, 72 h; MV4-11; Calcein AM, three days after drug addition; read-out: EC50 values (μM) MV4-11. Format: cell-based. In short, it runs like this:
as §1

Test [4] has as its system K562. Nature of the test: Calcein AM cytotoxicity assay. Format: cell-based. The following applies: Homo sapiens, 72 h; K562; Calcein AM, three days; read-out: EC50 values (μM) K562. In short, it runs like this: as §1
The subject of test [5] is U937 (monocytic leukemia, wt FLT3). Nature of the test: Calcein AM cytotoxicity assay. Format: cell-based. The following applies: Homo sapiens, U-937, 72 h; U937; Calcein AM, three days; read-out: EC50 values (μM) U937. In short, it runs like this: as §1
Test [6] concerns MCF-7. Nature of the test: Calcein AM cytotoxicity assay. Format: cell-based. The following applies: Homo sapiens, MCF7, 72 h; MCF-7; Calcein AM, three days; read-out: EC50 values (μM) MCF-7. In short, it runs like this:
as §1

Test [7] relates to EOL-1 (eosinophilic leukaemia, carrying the fusion FIP1L1-PDGFRA). The test is described as follows: Calcein AM cytotoxicity assay. Format: cell-based. The following applies: Homo sapiens, EOL1, 72 h; EOL-1; Calcein AM, three days; read-out: EC50 values (μM) EOL-1. In short, it runs like this: as §1
The test system of test [8] is Kasumi-1 (acute myeloid leukemia, KIT mutation Asn822Lys). Nature of the test: Calcein AM cytotoxicity assay. The following applies: Homo sapiens, 72 h; Kasumi-1; Calcein AM, three days; read-out: EC50 values (μM) Kasumi-1. Format: cell-based. In short, it runs like this: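 Kasumi-1 cells were grown in RPMI-1640 + 15% FBS, other lines at 37° C., 5% CO2, and seeded the day before compound addition in triplicates at various concentrations. After 3 days, viability was read with Calcein AM (1 μg/ml final, 1 h) as live-cell fluorescence at ex 485/em 538 nm.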

For test [9], the system named is HL60. The test is described as follows: Calcein AM cytotoxicity assay. Format: cell-based. The following applies: Homo sapiens, HL-60, 72 h, three days.
Test [10] has as its target T1, FLT3 D835 (Homo sapiens, UniProt P36888).
T1 sequence (P36888 1-993 D835Y): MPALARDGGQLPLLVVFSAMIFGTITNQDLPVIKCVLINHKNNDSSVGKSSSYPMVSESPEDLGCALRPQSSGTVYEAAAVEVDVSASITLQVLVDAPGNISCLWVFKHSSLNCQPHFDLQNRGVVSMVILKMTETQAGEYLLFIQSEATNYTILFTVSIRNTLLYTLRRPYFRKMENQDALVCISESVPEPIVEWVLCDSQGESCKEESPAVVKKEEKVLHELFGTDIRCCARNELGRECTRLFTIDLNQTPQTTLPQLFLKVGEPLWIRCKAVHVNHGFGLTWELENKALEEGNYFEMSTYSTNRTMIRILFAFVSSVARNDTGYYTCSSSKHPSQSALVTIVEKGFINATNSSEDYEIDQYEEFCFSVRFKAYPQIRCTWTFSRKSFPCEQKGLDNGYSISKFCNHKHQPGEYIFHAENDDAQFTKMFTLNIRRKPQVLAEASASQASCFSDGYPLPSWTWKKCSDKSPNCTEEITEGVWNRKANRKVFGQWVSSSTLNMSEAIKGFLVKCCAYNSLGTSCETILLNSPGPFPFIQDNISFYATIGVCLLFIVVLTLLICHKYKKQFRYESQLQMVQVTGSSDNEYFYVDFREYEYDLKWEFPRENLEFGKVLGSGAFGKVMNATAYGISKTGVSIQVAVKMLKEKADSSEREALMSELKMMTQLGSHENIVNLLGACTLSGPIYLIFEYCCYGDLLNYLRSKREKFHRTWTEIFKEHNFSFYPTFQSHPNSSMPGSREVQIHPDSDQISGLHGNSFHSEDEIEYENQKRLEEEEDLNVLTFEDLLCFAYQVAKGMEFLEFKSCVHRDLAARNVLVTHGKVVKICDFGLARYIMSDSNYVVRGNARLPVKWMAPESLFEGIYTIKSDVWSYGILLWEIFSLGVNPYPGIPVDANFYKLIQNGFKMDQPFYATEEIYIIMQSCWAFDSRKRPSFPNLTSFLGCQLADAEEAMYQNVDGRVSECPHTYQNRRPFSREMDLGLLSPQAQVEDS
Nature of the test: Kinase inhibition assay with [γ-33P]ATP. Format: biochemical. The following applies: AGLT substrate, 1 μM ATP.

Test [11] concerns the target T2, FLT3 WT (Homo sapiens, UniProt P36888).
T2 construct: purchased ProQinase GmbH
T2 sequence (P36888 27-993): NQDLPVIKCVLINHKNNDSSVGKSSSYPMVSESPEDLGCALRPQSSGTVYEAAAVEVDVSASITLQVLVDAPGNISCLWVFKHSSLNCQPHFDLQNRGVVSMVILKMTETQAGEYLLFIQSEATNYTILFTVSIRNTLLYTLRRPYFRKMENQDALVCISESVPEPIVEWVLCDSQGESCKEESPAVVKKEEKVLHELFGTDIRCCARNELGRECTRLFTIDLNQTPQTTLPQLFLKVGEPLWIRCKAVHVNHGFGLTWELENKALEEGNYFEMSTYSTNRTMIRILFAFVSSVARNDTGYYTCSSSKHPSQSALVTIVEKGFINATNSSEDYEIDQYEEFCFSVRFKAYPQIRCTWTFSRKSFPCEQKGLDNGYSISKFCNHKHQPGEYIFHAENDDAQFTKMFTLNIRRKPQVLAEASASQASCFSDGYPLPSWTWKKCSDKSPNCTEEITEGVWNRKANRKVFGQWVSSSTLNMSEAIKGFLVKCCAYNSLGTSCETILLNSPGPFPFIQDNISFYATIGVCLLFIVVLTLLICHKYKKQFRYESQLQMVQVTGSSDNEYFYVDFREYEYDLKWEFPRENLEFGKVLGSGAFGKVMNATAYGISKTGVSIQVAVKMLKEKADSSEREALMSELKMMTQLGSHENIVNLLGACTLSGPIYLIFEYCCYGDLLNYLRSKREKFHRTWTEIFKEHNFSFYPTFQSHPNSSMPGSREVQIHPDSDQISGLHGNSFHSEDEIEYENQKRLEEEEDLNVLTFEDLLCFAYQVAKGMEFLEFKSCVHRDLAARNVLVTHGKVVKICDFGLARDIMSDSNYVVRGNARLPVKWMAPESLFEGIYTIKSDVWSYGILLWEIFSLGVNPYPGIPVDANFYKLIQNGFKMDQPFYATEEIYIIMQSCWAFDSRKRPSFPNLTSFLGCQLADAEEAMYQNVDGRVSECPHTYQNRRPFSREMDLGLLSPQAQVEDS
Nature of the test: Kinase inhibition assay with [γ-33P]ATP. Format: biochemical. The following applies: AGLT substrate, 1 μM ATP. In short, it runs like this: (§2)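 Radiometric [γ-33P]ATP assay in HEPES pH 7.5 with Mg2+/Mn2+: CDK1/Cyclin B (Sf9-expressed) and purchased CDK5/p35 with 1 mg/mL histone H1 at 15 and 0.15 μM ATP respectively; FLT3 WT and FLT3-ITD with AGLT substrate at 1 μM ATP. Reactions stopped with H3PO4, spotted onto phosphocellulose and washed.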

The target of test [12] is T3, CDK5/p35 (Homo sapiens, UniProt Q00535).
T3 construct: purchased ProQinase GmbH
T3 sequence (Q00535 whole entry): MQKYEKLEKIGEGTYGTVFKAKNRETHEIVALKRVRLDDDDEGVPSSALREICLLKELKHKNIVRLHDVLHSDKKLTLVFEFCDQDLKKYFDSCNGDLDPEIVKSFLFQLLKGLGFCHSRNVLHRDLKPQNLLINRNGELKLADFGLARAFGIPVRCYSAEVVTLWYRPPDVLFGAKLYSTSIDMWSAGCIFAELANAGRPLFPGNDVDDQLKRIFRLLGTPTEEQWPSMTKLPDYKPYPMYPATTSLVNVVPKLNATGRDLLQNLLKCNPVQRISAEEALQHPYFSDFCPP
T3 sequence (Q15078 whole entry partner): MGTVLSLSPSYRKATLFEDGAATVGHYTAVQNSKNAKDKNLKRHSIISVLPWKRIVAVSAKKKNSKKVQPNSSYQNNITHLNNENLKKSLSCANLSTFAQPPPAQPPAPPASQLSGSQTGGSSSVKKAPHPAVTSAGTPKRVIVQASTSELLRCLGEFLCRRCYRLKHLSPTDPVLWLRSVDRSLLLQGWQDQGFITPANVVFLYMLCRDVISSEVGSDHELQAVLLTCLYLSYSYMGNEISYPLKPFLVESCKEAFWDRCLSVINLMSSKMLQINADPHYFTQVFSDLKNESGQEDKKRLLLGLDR
Nature of the test: Kinase inhibition assay with [γ-33P]ATP. Format: biochemical. The following applies: histone H1, 0.15 μM ATP. The essentials: as §2

The target of test [13] is T4, CDK1/Cyclin B (Homo sapiens, UniProt P06493).
T4 construct: made in house; host or cells: Sf9 insect cells, baculoviral infection
T4 sequence (P06493 whole entry, species assumed): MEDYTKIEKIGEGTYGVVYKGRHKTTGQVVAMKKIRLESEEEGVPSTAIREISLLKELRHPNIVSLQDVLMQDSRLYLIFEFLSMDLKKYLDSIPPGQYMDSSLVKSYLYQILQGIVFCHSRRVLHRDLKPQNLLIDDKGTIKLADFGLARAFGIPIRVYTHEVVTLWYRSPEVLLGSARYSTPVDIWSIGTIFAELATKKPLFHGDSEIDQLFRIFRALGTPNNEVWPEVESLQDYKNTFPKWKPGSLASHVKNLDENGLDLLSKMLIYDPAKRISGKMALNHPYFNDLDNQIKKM
T4 sequence (P14635 whole entry partner, species assumed): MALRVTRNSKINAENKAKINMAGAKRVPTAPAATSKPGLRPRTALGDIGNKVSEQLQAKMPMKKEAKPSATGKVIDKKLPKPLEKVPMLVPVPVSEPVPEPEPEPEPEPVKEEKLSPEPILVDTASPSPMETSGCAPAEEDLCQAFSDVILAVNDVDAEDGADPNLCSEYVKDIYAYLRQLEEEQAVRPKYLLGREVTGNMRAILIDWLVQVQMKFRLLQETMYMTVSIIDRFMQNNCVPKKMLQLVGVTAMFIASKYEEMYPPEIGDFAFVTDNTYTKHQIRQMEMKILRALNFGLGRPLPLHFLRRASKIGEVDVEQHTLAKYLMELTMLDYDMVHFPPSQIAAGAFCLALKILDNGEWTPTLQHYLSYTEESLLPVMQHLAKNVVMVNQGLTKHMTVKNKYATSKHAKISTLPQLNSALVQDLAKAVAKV
The test is described as follows: Kinase inhibition assay with [γ-33P]ATP. Format: biochemical. The following applies: histone H1, 15 μM ATP. The essentials:
as §2

The target of test [14] is T5, CDK2/Cyclin E (Homo sapiens, UniProt P24941).
T5 construct: made in house; host or cells: Sf9 insect cells, baculoviral infection
Nature of the test: Kinase inhibition assay with [γ-33P]ATP. Format: biochemical. The following applies: histone H1, 15 μM ATP; read-out: IC50 values (μM) CDK2. In short, it runs like this: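 Human CDK2/Cyclin E, expressed in baculovirus-infected Sf9 insect cells and purified on a NiNTA column, was assayed with 1 mg/mL histone H1 substrate, 15 μM ATP plus 0.05 μCi [γ-33P]ATP and test compound in 10 μL of buffer (60 mM HEPES-NaOH pH 7.5, 3 mM MgCl2, 3 mM MnCl2, 3 μM Na-orthovanadate, 1.2 mM DTT, PEG20,000). Reactions were quenched with 5 μL 3% H3PO4, spotted onto P-81 phosphocellulose, washed and dried.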

Test [15] deals with T6, FLT3-ITD (Homo sapiens, UniProt P36888).
T6 sequence (P36888 1-993): T1 sequence (P36888 1-993 D835Y) with Y835D
Nature of the test: Kinase inhibition assay with [γ-33P]ATP. Format: biochemical. The following applies: AGLT substrate, 1 μM ATP; read-out: IC50 values (μM) FLT3 ITD. In short, it runs like this: as §2

SMILES strings stand for the structures. Substitutions are numbered along the chain they refer to.

Turning to `NC1CCC(Nc2nc(Nc3ccc(CN4CC5(COC5)C4)nc3)c3ncn(C4CCCC4)c3n2)CC1` (stereo not drawn) [Compound 5], the EC50 in test [1] was 0.014 µM; in [2] it was 0.903 µM; in [3], 0.011 µM; in [4], 0.432 µM; in test [5], 0.44 µM; in test [6] it was 0.41 µM. In addition, the EC50 in [7] is 0.019 µM; in [8], 0.588 µM; in [9], 1.21 µM.

Consider `CCN1CC2(C1)CN(Cc1ccc(Nc3nc(NC4CCC(O)CC4)nc4c3ncn4C3CCCC3)cc1)C2` (stereo not drawn) [Compound 8], for which the concentration giving a half-maximal response (EC50) in test [1] is 0.056 µM; in [2] it was 2.1 µM; in test [3], 0.042 µM; in test [4], 0.391 µM; in test [5], 1.35 µM; in test [6] it was 0.22 µM. Further, the EC50 in [7] was 0.049 µM; in [8] it was 0.636 µM; in test [9], 1.42 µM.

For the molecule `CCN1CC2(C1)CN(Cc1ccc(Nc3nc(NCCCN)nc4c3ncn4C3CCCC3)cc1)C2` [Compound 20], the half-inhibitory concentration (IC50) in test [10] was 0.004 µM; in [11], 0.015 µM; in test [12], 0.044 µM; in test [13], 0.04 µM; in test [14], 0.005 µM; in test [15], 0.004 µM.

The term EC50 denotes the concentration needed to bring the measured effect to its halfway point. Broadly, the IC50 is the concentration that inhibits the measured activity by half.
